Laboratory results as given in patent US9089548B2, “Composition for protection against cell-damaging effects” (TIMA FOUNDATION, priority 2011, dated 2015).

Assays:
hen's egg white lysozyme = test: Activity test of lysozyme X-irradiated in the presence of additives added before irradiation (a.r.); format: biochemical; details: X (1000 Gy); a.r. additive 10 mM; lysozyme 0.1 mg/ml; unirradiated lysozyme = 100%
Procedure: The hen's egg white lysozyme was purchased from Serva (Heidelberg, Germany), additives and all other substances were of the highest available grade. Lysozyme (0.1 mg/ml) and the additives (10 mM, except otherwise stated) were dissolved in dilute, air-saturated 1 mM sodium phosphate buffer pH 6.5 and were irradiated at 25° C. with X-rays (0-1 kGy) in the absence or presence of the additives. Activity tests of the lysozyme were performed as described in Shugar, 1952. The measurement of lysozyme activity and the ultra-violet inactivation of lysozyme. Biochim. Biophys. Acta 8, 302-309. were recorded in a Jasco UV/VIS spectrophotometer V-530. The activity test of lysozyme is simple and straightforward. The method described by Shugar uses the diluted unirradiated or irradiated enzyme and a cell suspension of Micrococcus lysodeikticus in a special activity buffer (66 mM sodium phosphate buffer with 17 mM NaCl, pH 7.0). The bacterium is suspended in an Erlenmeyer flask in the activity buffer at a concentration of 0.2 mg/ml. Before using the bacterial suspension in the test, the flask has to be swivelled to ensure homogeneous pipetting into the cuvette. Working briskly, the enzyme sample was pipetted to the bacterial solution, and using parafilm to tightly seal the cuvette, was homogeneously hand-mixed. Typical test mixtures (total of 3 ml) consisted of 2.98 ml bacterial solution plus 0.02 ml unirradiated enzyme sample in the absence or presence of additives, and 2.95 ml bacterial solution plus 0.05 ml irradiated enzyme (250 Gy) in the absence of additives, and 2.6 ml bacterial solution plus 0.4 ml irradiated enzyme (1000 Gy) in the absence of additives, to allow reasonable handling of the samples. The decrease in absorbance resulting from a breakdown of the bacteria by the enzyme is measured in a 3-ml cuvette in a spectrophotometer at a wavelength of 450 nm for a continuous time period of 3 min at 25° C. Different decreases in absorbance reflect different activities. The test may also be applied for lysozyme in the presence of antioxidants, since, owing to the high dilution of the samples (lysozyme+antioxidants) in the test and the wavelength used, the antioxidants will not disturb the results of the activity measurement. No further separation techniques are needed. Irradiations were performed in small 2-ml plastic cups at 25° C. The dosage measurement of X-rays was obtained by Fricke dosimetry (ferrous sulfate dosimetry). […] Afterwards the irradiated lysozyme was used in the activity assay as described in example 2 to determine the activity of the lysozyme. For comparison, activities are given in percent. The native, unirradiated lysozyme is used as reference and is considered to have 100% activity. […]

[1] = tested on: hydrogen peroxide in the blood of mice; test: Hydrogen peroxide concentration in blood of 6 Gy irradiated mice (d-ROMs test); format: in vivo, C57BL/6 mice; details: Example 7; for Hydrogen peroxide concentration: three times in 24 h interval before 6 Gy, blood 72 h after irradiation
Procedure: For the following experiments C57BL/6 mice (21 gram body weight) were purchased from Japan SLC (Shizuoka, Japan). The mice were used for the experiments with an age of 8 weeks.
In this Experiment Six Groups were Built, Wherein Each Group Comprises 6 Mice: • a) the first group of mice were not treated and built the negative control, • b) the second group of mice built the positive control, thus the mice were treated with 6 Gy radiation and 72 hours after irradiation blood sampling was performed, • c) the third group of mice was treated with 150 mg Vitamin C per kg body weight, • d) the forth group of mice was treated with 15 mg Vitamin C per kg body weight, and • e) the fifth group of mice was treated with 15 mg of the composition in Example 6 per kg body weight.
The following experiment was performed for the first, second and fifth group in three independent experiments, for the third group in two independent experiments and for the forth group in one experiment.
Each mouse was placed in a well-ventilated acrylic container. The composition in Example 6 and Vitamin C, respectively suspended in 0.5 ml water was orally administered three times in a 24 hours interval to the mice of the third to fifth group. 24 hours after the third administration mice were exposed to 6 Gy whole body irradiation (WBI), given at a dose rate of 0.45 Gy/min at 150 kV and 5 mA (HITACHI MBR-1505R2, Tokyo, Japan). The beam was filtered through a 2 mm aluminum board. 72 hours after irradiation blood sampling was performed.
The d-ROMs (Reactive Oxygen Metabolites) test by using Free Carpe Diem photometric analytical system (Diacron, Grosseto, Italy) was used for the measurement of free radical metabolites in the blood samples of the mice. It is a spectrophotometric method that assesses overall oxidative stress by measuring total hydroperoxide levels, given that hydroperoxides are intermediate oxidative products of lipids, peptides, and amino acids. Briefly, 0.02 ml plasma was diluted in 1 ml acetate-buffered solution. Hydroperoxide groups react with the transition metal ions liberated from the proteins in the acidic medium, and are converted to alkoxyl and peroxyl radicals according to the Fenton reaction. These newly formed radicals, the quantities of which are directly proportional to those of the peroxides, were trapped chemically with 0.02 ml chromogen (N, N-diethyl-para-phenylendiamine), leading to the formation of the radical cation of this chromogen. The purple color resulting from this reaction over time was monitored in a spectrophotometer (Wismarll FRAS4, Tokyo, Japan) at 505 nm. The results of this method were expressed in μmol per liter. […]
c) the fifth group of mice, comprising 12 mice, was treated with 15 mg of a composition similar to that of Example 8 containing cysteine instead of cystine per kg body weight by oral administration, and
d) the sixth group of mice, comprising 12 mice, was treated with 15 mg of the composition according to Example 8 per kg body weight by intra-peritoneal administration.
Each mouse was placed in a well-ventilated acrylic container. The mice representing the positive control were exposed to 6 Gy whole body irradiation (WBI), given at a dose rate of 0.45 Gy/min at 150 kV and 5 mA (HITACHI MBR-1505R2, Tokyo, Japan). The beam was filtered through a 2 mm aluminum board. 72 hours after irradiation blood sampling was performed.
The composition in Example 8 was orally administered three times in a 24 hours interval to the mice of the second group in the concentration of 15 mg composition per kg body weight, i.e. the mice were pre-treated 3 days with the composition of Example 8 before irradiation. 24 hours after the third administration mice were irradiated using conditions as for positive control. 72 hours after irradiation blood sampling was performed. […]

O=C1O[C@H]([C@@H](O)CO)C(O)=C1O [Ascorbic acid]
% Activity (hen's egg white lysozyme): 90%
Difference (increase vs positive control) ([1]; 15 mg/kg oral, three times before 6 Gy, positive control 144.7): 5.1 µmol/L
Increase rate ([1]; 15 mg/kg oral, three times before 6 Gy, relative to radiation-induced increase 19.7 μmol/l, listed as Vitamin C, 15 mg/kg): 25.89%
Hydrogen peroxide concentration ([1]; 15 mg/kg oral): 149.6 µmol/L
Difference (decrease vs positive control) ([1]; 150 mg/kg oral, three times before 6 Gy, positive control 144.7): 3.8 µmol/L
Reduction rate ([1]; 150 mg/kg oral, three times before 6 Gy, relative to radiation-induced increase 19.7 μmol/l, listed as Vitamin C, 150 mg/kg): 19.29%
Hydrogen peroxide concentration ([1]; 150 mg/kg oral): 140.5 µmol/L

N[C@@H](CCC(=O)N[C@@H](CS)C(=O)NCC(=O)O)C(=O)O [Glutathione, glutathione]
% Activity (hen's egg white lysozyme): 58%

OC[C@@H](O)[C@@H](O)[C@H](O)[C@H](O)CO [Mannitol, mannitol]
% Activity (hen's egg white lysozyme): 51%

O=C[O-].[Na+] [Sodium-Formate, sodium-formate]
% Activity (hen's egg white lysozyme): 75%
